Reference: article PMC6174881 (Journal of medicinal chemistry, 2018)

Assays:
mMC4R = mMC4R (Mus musculus, UniProt P56450); details: depending on the cAMP assay utilized; cited from earlier work
mMC1R [1] = molecular target: T1, mMC1R (Mus musculus, UniProt Q01727); details: maximal stimulation relative to NDP-MSH; sigmoidal dose-response
mMC1R [2] = molecular target: T1, mMC1R; test: cell-based

T1 sequence (Q01727 whole entry): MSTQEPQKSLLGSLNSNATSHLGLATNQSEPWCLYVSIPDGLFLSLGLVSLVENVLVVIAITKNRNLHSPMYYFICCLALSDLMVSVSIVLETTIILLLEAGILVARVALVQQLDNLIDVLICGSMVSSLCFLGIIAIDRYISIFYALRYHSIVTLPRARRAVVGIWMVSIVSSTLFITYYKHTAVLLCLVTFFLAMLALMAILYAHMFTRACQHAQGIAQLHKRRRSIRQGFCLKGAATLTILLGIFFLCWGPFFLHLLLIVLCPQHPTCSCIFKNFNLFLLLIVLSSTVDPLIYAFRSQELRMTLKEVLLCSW
Sequence of mMC4R (P56450 whole entry): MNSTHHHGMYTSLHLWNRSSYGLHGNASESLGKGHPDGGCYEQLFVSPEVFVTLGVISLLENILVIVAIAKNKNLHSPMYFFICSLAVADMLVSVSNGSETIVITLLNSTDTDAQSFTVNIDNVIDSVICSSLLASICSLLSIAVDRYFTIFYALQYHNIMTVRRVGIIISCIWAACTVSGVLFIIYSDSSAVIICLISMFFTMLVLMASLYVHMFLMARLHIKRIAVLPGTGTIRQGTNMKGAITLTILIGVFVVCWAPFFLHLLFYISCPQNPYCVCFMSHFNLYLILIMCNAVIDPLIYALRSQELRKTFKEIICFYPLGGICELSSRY

With `C[C@@H]1NC(=O)[C@H](CC(N)=O)NC(=O)[C@H](Cc2ccccc2)NC(=O)[C@H](Cc2ccccc2)NC(=O)[C@H](CCCNC(=N)N)NC(=O)[C@@H]2CCCN2C(=O)[C@H]2CCCN2C(=O)[C@H](Cc2ccccc2)NC1=O` [Compound 1, c[Pro-Arg-Phe-Phe-Asn-Ala-Phe-DPro]] as the compound, how does the “mMC4R pA2” value (mMC4R) read?
Its value is 7.7–8.1.

And the “mMC1R partial agonist activity (X%), receptor stimulated to given percent” value (mMC1R [1])?
The value was 80%.

What about the EC50 (mMC1R [2]) of the same compound?
The EC50 was 2800 ± 600 nM.
